Measured values: US20080004271A1, “Inhibitors of TNFalpha, PDE4 and B-RAF, compositions thereof and methods of use therewith” (priority 2006, published 2008)

Assays:
[1] = system: A375 cells; experiment: Alamar Blue Viability Assay; type: cell-based; settings: Homo sapiens, A-375, 72 h, 3 days
Protocol: A375 cells (ATCC # CRL-1619; Passage 4˜15; doubling time is roughly 18 hours) are used. Culture medium is DMEM (high glucose, with L-glutamine)+10% FBS+Pen/Strep. Cells are passed every three days at 1:20.
200 μl of medium only is added into all wells along the edges of a 96-well flat bottom plate and 180 μl of cell suspension (containing 1,000 cells) per well is added into the plate with a Low Evaporation Lid (Costar Cat # 3595). The cells are cultured overnight. Compounds and controls are diluted according to standard compound dilution protocol described below. From 30 mM stock solution, 10 mM, 3 mM, 1 mM, and 0.3 mM solutions in 100% DMSO are prepared using the following serial dilution protocol:
The 30, 10, 3, 1 and 0.3 mM solutions are diluted 1:50 (DMSO:medium) by adding 4 μl of each to 196 μl of culture medium. This yields 600 μM, 200 μM, 60 μM, 20 μM, and 6 μM secondary stock solutions. 4 μl of DMSO are added to 196 μl medium for the DMSO control as well. 20 μl of compound dilutions, including the DMSO control locations (Row G, Columns 2-10 are DMSO control wells), are added in triplicate to the cells in the 96-well plate using a repeat pipettor (see plate layout below). This yields final concentrations of 60 μM, 20 μM, 6 μM, 2 μM, and 0.6 μM containing 0.2% DMSO in each well. The plate is gently tapped to evenly distribute compound within the well. The plate is incubated at 5% CO2 at 37° C. for 3 days.
20 μl of Alamar Blue (Biosource #DAL-1100) is added to each well. The plate is incubated in 5% CO2 incubator for 4 hours. Fluorescence is measured with excitation wavelength at 530 nm and emission wavelength at 590 nm using a Victor 2 multilabel plate reader (Perkin Elmer). Data is saved with plate format as a Text file and entered into ActivityBase (Cell-based SAR; Prolif-Alamar; MTT 5 plates unfixed fit) to calculate the percent of DMSO values for each compound set of triplicate wells and IC50 curves are plotted.

[2] = system: pMEK1/2 in A375 cells; experiment: A375 pMEK1/2 Meso Scale Assay; type: cell-based; settings: Homo sapiens, A-375, 2 h; A375 pMEK1/2, about two hours incubation
Protocol: On the afternoon of Day 1, cells are plated in a 96-well flat bottom cell culture plate at about 50,000 cells/well in a volume of 100 μl. On the morning of Day 2, serial dilutions of test compound(s) are added to the plate. The plate is incubated for about two hours at 37° C., […]. The plate is blocked about five minutes before the compound incubation step is completed by adding 150 μl/well of MSD (Meso Scale Discovery) blocking solution-A (prepared with 20 ml 1× Tris wash buffer (25 ml of 10× Tris buffer+225 ml deionized water) and 600 mg MSD blocker A) and incubating with vigorous shaking at room temperature for one hour. The plate is washed 4× with 1× Tris wash buffer.
Cells are harvested and lysates prepared by removing medium, washing 1× with ice-cold PBS (calcium and magnesium free), adding 50 μl/well Complete Tris buffer and incubating with shaking at 4° C. for one hour. Lysate samples (25 μl) are added to an MSD Multi-Spot plate and incubated with vigorous shaking at room temperature for two hours. The plate is washed 1× with Tris wash buffer.
25 μl/well of […] detection antibody (Anti-pMEK1/2 antibody; SULFO-TAG labeled, light sensitive) in 3 ml of cold antibody dilution buffer (1 ml blocking solution-A, 1.82 ml 1× Tris wash buffer, 150 μl 2% MSD blocker D-M and 30 μl 10% MSD blocker D-R) is added and the plate is incubated with vigorous shaking at room temperature in the dark for one hour. The plate is washed 1× with Tris wash buffer.
150 μl/well of 1× MSD Read buffer T (with surfactant) is added to the plate and the plate is read using a MSD Sector instrument.

[3] = target: T1, V600E mutant B-RAF (Homo sapiens, UniProt P15056, V600E); experiment: V600E Mutant B-RAF 33P Assay; type: biochemical
T1 construct: purchased Upstate
T1 sequence (P15056 whole entry V600E): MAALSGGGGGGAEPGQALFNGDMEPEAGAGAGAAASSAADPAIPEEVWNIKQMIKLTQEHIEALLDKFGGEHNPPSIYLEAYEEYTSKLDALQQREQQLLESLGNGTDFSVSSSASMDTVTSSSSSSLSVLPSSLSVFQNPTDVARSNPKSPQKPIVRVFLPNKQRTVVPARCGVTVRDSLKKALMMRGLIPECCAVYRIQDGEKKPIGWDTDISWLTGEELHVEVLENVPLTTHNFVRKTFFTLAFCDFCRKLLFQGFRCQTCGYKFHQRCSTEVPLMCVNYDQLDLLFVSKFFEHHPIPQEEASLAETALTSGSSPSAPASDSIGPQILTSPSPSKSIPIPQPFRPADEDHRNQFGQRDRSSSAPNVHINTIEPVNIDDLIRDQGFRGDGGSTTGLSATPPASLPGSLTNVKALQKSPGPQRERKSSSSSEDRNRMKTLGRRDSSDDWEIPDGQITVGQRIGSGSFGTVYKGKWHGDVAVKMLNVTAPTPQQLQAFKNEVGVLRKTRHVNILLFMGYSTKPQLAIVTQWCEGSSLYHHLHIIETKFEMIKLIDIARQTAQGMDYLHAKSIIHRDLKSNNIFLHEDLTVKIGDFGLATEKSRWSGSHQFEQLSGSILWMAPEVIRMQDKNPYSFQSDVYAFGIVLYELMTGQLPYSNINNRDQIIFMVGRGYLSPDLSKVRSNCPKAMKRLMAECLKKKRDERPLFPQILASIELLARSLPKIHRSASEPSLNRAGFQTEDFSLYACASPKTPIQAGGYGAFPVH
Protocol: Substrate (HIS-MEK1 K97M) is prepared by Celgene Corp. as described above.
Test compound is diluted in 100% DMSO (600 μM). […] Substrate mixture is prepared as 7.5 μM HIS-MEK1 K97M in assay buffer. ATP mixture is prepared as 300 μM ATP, 75 mM MgCl2, 0.05 μCi/μl ^33P ATP in assay buffer.
In a 96 well assay plate (Falcon Polylpropylene well U-bottom), the following are added to each well: 2.5 μl of test compound solution (serial dilutions), 20 μl of substrate mixture and 17.5 μl of enzyme mixture. The plate is incubated for at least 15 minutes. 10 μl of ATP mixture is added and the plate is incubated at room temperature for about 60 minutes. 80 μl of 12.5% TCA is added to each well, and the plate is incubated for at least 20 minutes. The contents of the plate is transferred to a glass fiber filter plate (Millipore) using a Packard Harvester (washing 10× with 1×PBS). 50 μl of Scintillation-20 fluid is added to each well. The plate is read using a Packard TopCount.

SMILES | IC50 [1] [µM] | IC50 [2] [µM] | IC50 [3] [µM]
NC(=O)c1sc2nc(NC3CC3)nc(-c3ccc(Cl)cc3)c2c1N [Example 5] | 10 to 20 | 0.1 to 10 | 0.1 to 10
NC(=O)c1sc2nc(NC3CC3)nc(-c3ccc4c(c3)OCC4)c2c1N [Example 162] | 10 to 20 | 0.1 to 10 | 0.1 to 10
COc1cncc(-c2nc(NC3CC3)nc3sc(C(N)=O)c(N)c23)c1 [Example 165] | 0.1 to 10 | 0.1 to 10 | –
NC(=O)c1sc2nc(NC3CC3)nc(-c3ccc(Cl)nc3)c2c1N [Example 169] | 20 to 30 | 0.1 to 10 | 0.1 to 10
NC(=O)c1sc2nc(NC3CC3)nc(-c3cncc(Cl)c3)c2c1N [Example 171] | 20 to 30 | 0.1 to 10 | 0.1 to 10
CCOc1cncc(-c2nc(NC(C)(C)CO)nc3sc(C(N)=O)c(N)c23)c1 [Example 172] | > 60 | > 60 | 30 to 60
COc1cncc(-c2nc(NC(C)(C)CO)nc3sc(C(N)=O)c(N)c23)c1 [Example 173] | 0.1 to 10 | 0.1 to 10 | –
CC[C@H](CO)Nc1nc(-c2cncc(OC)c2)c2c(N)c(C(N)=O)sc2n1 [Example 174] | 0.1 to 10 | 0.1 to 10 | 0.1 to 10
CC[C@@H](CO)Nc1nc(-c2cncc(OC)c2)c2c(N)c(C(N)=O)sc2n1 [Example 175] | 10 to 20 | 0.1 to 10 | 0.1 to 10
COc1cncc(-c2nc(N[C@H](C)CO)nc3sc(C(N)=O)c(N)c23)c1 [Example 176] | 0.1 to 10 | 0.1 to 10 | –
NC(=O)c1sc2nc(N)nc(-c3cccc(O)c3)c2c1N [Example 185] | 0.1 to 10 | 0.1 to 10 | 0.1 to 10
Cc1ccc(-c2nc(NC3CC3)nc3sc(C(N)=O)c(N)c23)cc1C [Example 188] | 10 to 20 | 0.1 to 10 | 0.1 to 10
NC(=O)c1sc2nc(C3CC3)nc(-c3ccc(Cl)c(Cl)c3)c2c1N [Example 189] | 0.1 to 10 | 20 to 30 | 0.1 to 10
CC(C)(CO)Nc1nc(-c2cc(O)cc(Cl)c2)c2c(N)c(C(N)=O)sc2n1 [Example 190] | 0.1 to 10 | 0.1 to 10 | –
CC[C@@H](CO)Nc1nc(-c2cc(O)cc(Cl)c2)c2c(N)c(C(N)=O)sc2n1 [Example 191] | 0.1 to 10 | 0.1 to 10 | 0.1 to 10
C[C@@H](O)[C@@H](C)Oc1nc(-c2ccc(Cl)c(Cl)c2)c2c(N)c(C(N)=O)sc2n1 [Example 214] | 0.1 to 10 | 0.1 to 10 | 0.1 to 10
NC(=O)c1sc2nc(NC3CC3)nc(-c3cccc(O)c3F)c2c1N [Example 232] | 0.1 to 10 | 0.1 to 10 | –
NC(=O)c1sc2nc(NC3CC3)nc(-c3cccc(NC(=O)Nc4ccccc4)c3)c2c1N [Example 248] | 10 to 20 | 10 to 20 | –
NC(=O)c1sc2nc(NC3CC3)nc(-c3cccc(NC(=O)Nc4ccc(C(F)(F)F)cc4)c3)c2c1N [Example 250] | 0.1 to 10 | 0.1 to 10 | –
Cc1ccc(NC(=O)Nc2cccc(-c3nc(NC4CC4)nc4sc(C(N)=O)c(N)c34)c2)cc1 [Example 251] | 0.1 to 10 | 0.1 to 10 | –
CC(C)(CO)Nc1nc(-c2cccc(NC(=O)Nc3ccc(C(F)(F)F)cc3)c2)c2c(N)c(C(N)=O)sc2n1 [Example 257] | 0.1 to 10 | 0.1 to 10 | –
NC(=O)c1sc2ncnc(-c3cccc(NC(=O)Nc4ccc(C(F)(F)F)cc4)c3)c2c1N [Example 262] | 0.1 to 10 | 0.1 to 10 | –
NC(=O)c1sc2ncnc(-c3ccc(Cl)c(Cl)c3)c2c1N [Example 269] | > 60 | > 60 | –

Further lines, results first:

IC50 [1] [µM] | IC50 [2] [µM] | IC50 [3] [µM] | SMILES
30 to 60 | 10 to 20 | – | C[C@H](CO)Cc1nc(-c2ccc(Cl)c(Cl)c2)c2c(N)c(C(N)=O)sc2n1 [Example 163]
20 to 30 | 10 to 20 | – | C[C@@H](CO)Cc1nc(-c2ccc(Cl)c(Cl)c2)c2c(N)c(C(N)=O)sc2n1 [Example 164]
0.1 to 10 | 0.1 to 10 | 0.1 to 10 | CC[C@H](CO)Nc1nc(-c2cc(O)cc(Cl)c2)c2c(N)c(C(N)=O)sc2n1 [Example 192]
10 to 20 | 0.1 to 10 | – | C[C@@H](CO)Nc1nc(-c2ccc(Cl)c(Cl)c2)c2c(N)c(C(N)=O)sc2n1 [Example 200]
10 to 20 | 0.1 to 10 | – | C[C@H](CO)Nc1nc(-c2ccc(Cl)c(Cl)c2)c2c(N)c(C(N)=O)sc2n1 [Example 201]
10 to 20 | 20 to 30 | 0.1 to 10 | NC(=O)CCNc1nc(-c2ccc(Cl)c(Cl)c2)c2c(N)c(C(N)=O)sc2n1 [Example 202]
10 to 20 | 0.1 to 10 | – | CC(C)(CO)Nc1nc(-c2ccc(Cl)c(Cl)c2)c2c(N)c(C(N)=O)sc2n1 [Example 203]
20 to 30 | 10 to 20 | 0.1 to 10 | NC(=O)c1sc2nc(NC(CO)CO)nc(-c3ccc(Cl)c(Cl)c3)c2c1N [Example 204]
20 to 30 | 20 to 30 | 0.1 to 10 | C[C@H](O)CNc1nc(-c2ccc(Cl)c(Cl)c2)c2c(N)c(C(N)=O)sc2n1 [Example 205]
20 to 30 | 20 to 30 | 0.1 to 10 | C[C@@H](O)CNc1nc(-c2ccc(Cl)c(Cl)c2)c2c(N)c(C(N)=O)sc2n1 [Example 206]
10 to 20 | 10 to 20 | 0.1 to 10 | CC[C@@H](CO)Nc1nc(-c2ccc(Cl)c(Cl)c2)c2c(N)c(C(N)=O)sc2n1 [Example 207]
10 to 20 | 0.1 to 10 | 0.1 to 10 | CC[C@H](CO)Nc1nc(-c2ccc(Cl)c(Cl)c2)c2c(N)c(C(N)=O)sc2n1 [Example 208]
0.1 to 10 | 0.1 to 10 | 0.1 to 10 | NC(=O)c1sc2nc(NC3(CO)CC3)nc(-c3ccc(Cl)c(Cl)c3)c2c1N [Example 210]
10 to 20 | 0.1 to 10 | – | C[C@H](CO)Oc1nc(-c2ccc(Cl)c(Cl)c2)c2c(N)c(C(N)=O)sc2n1 [Example 212]
0.1 to 10 | 10 to 20 | 0.1 to 10 | CCCNc1nc(-c2ccc(Cl)c(Cl)c2)c2c(N)c(C(N)=O)sc2n1 [Example 217]
10 to 20 | 30 to 60 | 0.1 to 10 | CNCCNc1nc(-c2ccc(Cl)c(Cl)c2)c2c(N)c(C(N)=O)sc2n1 [Example 218]
> 60 | > 60 | 0.1 to 10 | COCCNc1nc(-c2ccc(Cl)c(Cl)c2)c2c(N)c(C(N)=O)sc2n1 [Example 219]
– | 10 to 20 | 0.1 to 10 | CC(C)c1nc(-c2ccc(Cl)c(Cl)c2)c2c(N)c(C(N)=O)sc2n1 [Example 238]
